From patent US12077503B2, “Substituted cyclic amides and their use as herbicides” (FMC CORPORATION, priority 2015, dated 2024)

Tests used:
Type in all cases: in vivo
[1] = test system: ducksalad (Heteranthera limosa); assay: Test B flooded paddy test; conditions: Heteranthera limosa, 250 g ai/ha, Flood; 0 to 100 scale where 0 is no effect and 100 is complete control; read-out: Ducksalad plant response rating
Method in brief: (§1)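 Visual ratings (0 none to 100 complete control) are relative to untreated plants, taken 13–15 d after treatment in a greenhouse. Test material went straight into floodwater standing 3 cm above the soil, kept constant, on plants at the 2-leaf stage.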

[2] = test system: sedge, umbrella (small-flower umbrella sedge, Cyperus difformis); assay: Test B flooded paddy test; conditions: Cyperus difformis, 250 g ai/ha, Flood; 0 to 100 scale where 0 is no effect and 100 is complete control; read-out: Sedge, Umbrella plant response rating
Method in brief: as §1

[3] = test system: barnyardgrass (Echinochloa crus-galli); assay: Test B flooded paddy test; conditions: Echinochloa crus-galli, 250 g ai/ha, Flood; 0 to 100 scale where 0 is no effect and 100 is complete control; read-out: Barnyardgrass plant response rating
Method in brief: as §1

rice (Oryra sativa) = assay: Test B flooded paddy test; conditions: Oryza sativa, 250 g ai/ha, Flood; 0 to 100 scale where 0 is no effect and 100 is complete control; read-out: Rice plant response rating
Method in brief: as §1

[4] = test system: ragweed (common ragweed, Ambrosia elatior); assay: Test A postemergence; conditions: Ambrosia artemisiifolia, post-emergence, 240 h, Postemergence, read-out: Ragweed plant response rating (0 to 100 scale)
Method in brief: (§2)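 Visual injury scores from 0, no effect, to 100, complete control, were assigned versus untreated controls roughly 10 d after treatment in the greenhouse. Test chemicals, formulated with surfactant in a non-phytotoxic solvent, were applied to planted seeds as a preemergence soil spray or postemergence to one- to two-leaf plants 2 to 10 cm tall, in loam–sand soil.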

[5] = test system: Galium (catchweed bedstraw, Galium aparine); assay: Test A postemergence; conditions: Galium, post-emergence, 240 h, Postemergence, read-out: Galium plant response rating (0 to 100 scale)
Method in brief: as §2

[6] = test system: blackgrass (Alopecurus myosuroides); assay: Test A postemergence; conditions: Alopecurus myosuroides, post-emergence, 240 h, Postemergence, read-out: Blackgrass plant response rating (0 to 100 scale)
Method in brief: as §2

[7] = test system: pigweed (Amaranthus retroflexus); assay: Test A postemergence; conditions: Amaranthus retroflexus, post-emergence, 240 h, Postemergence, read-out: Pigweed plant response rating (0 to 100 scale)
Method in brief: as §2

corn (Zea mays) = assay: Test A postemergence; conditions: Zea mays, post-emergence, 240 h, Postemergence, read-out: Corn plant response rating (0 to 100 scale)
Method in brief: as §2

Kochia (Kochia scoparia) [8] = assay: Test A postemergence; conditions: Bassia scoparia, post-emergence, 240 h, Postemergence, read-out: Kochia plant response rating (0 to 100 scale)
Method in brief: as §2

[9] = test system: barnyardgrass (Echinochloa crus-galli); assay: Test A postemergence; conditions: Echinochloa crus-galli, post-emergence, 240 h, Postemergence
Method in brief: as §2

[10] = test system: ryegrass, Italian (Italian ryegrass, Lolium multiflorum); assay: Test A postemergence; conditions: Lolium multiflorum, post-emergence, 240 h, Postemergence, read-out: Ryegrass, Italian plant response rating (0 to 100 scale)
Method in brief: as §2

[11] = test system: wheat (Triticum aestivum); assay: Test A postemergence; conditions: Triticum aestivum, post-emergence, 240 h, Postemergence, read-out: Wheat plant response rating (0 to 100 scale)
Method in brief: as §2

[12] = test system: giant foxtail (Setaria faberii); assay: Test A postemergence; conditions: Setaria faberi, post-emergence, 240 h, Postemergence, read-out: Foxtail, Giant plant response rating (0 to 100 scale)
Method in brief: as §2

[13] = test system: ragweed (common ragweed, Ambrosia elatior); assay: Test A preemergence; conditions: Ambrosia artemisiifolia, pre-emergence, 240 h, 0 to 100 scale where 0 is no effect and 100 is complete control, read-out: Ragweed plant response rating
Method in brief: as §2

[14] = test system: pigweed (Amaranthus retroflexus); assay: Test A preemergence; conditions: Amaranthus retroflexus, pre-emergence, 240 h, 0 to 100 scale where 0 is no effect and 100 is complete control, read-out: Pigweed plant response rating
Kochia (Kochia scoparia) [15] = assay: Test A preemergence; conditions: Bassia scoparia, pre-emergence, 240 h, 0 to 100 scale where 0 is no effect and 100 is complete control, read-out: Kochia plant response rating
Method in brief: as §2

[16] = test system: barnyardgrass (Echinochloa crus-galli); assay: Test A preemergence; conditions: Echinochloa crus-galli, pre-emergence, 240 h, 0 to 100 scale where 0 is no effect and 100 is complete control, read-out: Barnyardgrass plant response rating
Method in brief: as §2

[17] = test system: ryegrass, Italian (Italian ryegrass, Lolium multiflorum); assay: Test A preemergence; conditions: Lolium multiflorum, pre-emergence, 240 h, 0 to 100 scale where 0 is no effect and 100 is complete control, read-out: Ryegrass, Italian plant response rating
Method in brief: as §2

[18] = test system: giant foxtail (Setaria faberii); assay: Test A preemergence; conditions: Setaria faberi, pre-emergence, 240 h, 0 to 100 scale where 0 is no effect and 100 is complete control, read-out: Foxtail, Giant plant response rating
Method in brief: as §2

[19] = 125 g ai/ha, visual rating about 10 d after treatment
[20] = 31 g ai/ha, 0 is no effect, 100 is complete control
[21] = 125 g ai/ha, preemergence, visual injury rating, approximately 10 d

Question: Which pest or weed control at 250 g/ha [1] does the source give for `CN1C[C@H](c2cccc(C(F)(F)F)c2)[C@@H](C(=O)Nc2ccccc2-n2cncn2)C1=O` [Compound 1289] here?
Answer: Its pest or weed control at 250 g/ha is 0%.

Question: And the pest or weed control at 250 g/ha [2]?
Answer: The pest or weed control at 250 g/ha was 0%.

Question: What about the pest or weed control at 250 g/ha [3] of the same compound?
Answer: The pest or weed control at 250 g/ha was 0%.

Question: What about the pest or weed control at 250 g/ha (rice (Oryra sativa)) of the same compound?
Answer: The pest or weed control at 250 g/ha was 0%.

Question: What about the pest or weed control at 125 g/ha [4, 19] of the same compound?
Answer: The pest or weed control at 125 g/ha was 0%.

Question: And the pest or weed control at 31 g/ha [4, 20]?
Answer: Its pest or weed control at 31 g/ha is 0%.

Question: And the pest or weed control at 125 g/ha [5, 19]?
Answer: The pest or weed control at 125 g/ha was 0%.

Question: And the pest or weed control at 31 g/ha [5, 20]?
Answer: The pest or weed control at 31 g/ha was 0%.

Question: And the pest or weed control at 125 g/ha [6, 19]?
Answer: The pest or weed control at 125 g/ha was 0%.

Question: And the pest or weed control at 31 g/ha [6, 20]?
Answer: Its pest or weed control at 31 g/ha is 0%.

Question: And the pest or weed control at 125 g/ha [7, 19]?
Answer: Its pest or weed control at 125 g/ha is 0%.

Question: What about the pest or weed control at 31 g/ha [7, 20] of the same compound?
Answer: Its pest or weed control at 31 g/ha is 0%.

Question: And the plant injury at 125 g/ha (corn (Zea mays); [19])?
Answer: The plant injury at 125 g/ha was 0%.

Question: And the plant injury at 31 g/ha (corn (Zea mays); [20])?
Answer: Its plant injury at 31 g/ha is 0%.

Question: What about the pest or weed control at 125 g/ha (Kochia (Kochia scoparia) [8]; [19]) of the same compound?
Answer: The pest or weed control at 125 g/ha was 0%.

Question: And the pest or weed control at 31 g/ha (Kochia (Kochia scoparia) [8]; [20])?
Answer: The pest or weed control at 31 g/ha was 0%.

Question: What about the pest or weed control at 125 g/ha ([9]; 125 g ai/ha, visual rating about 10 d after treatment, read-out: Barnyardgrass plant response rating (0 to 100 scale, 0 no effect, 100 complete control)) of the same compound?
Answer: The pest or weed control at 125 g/ha was 0%.

Question: What about the pest or weed control at 31 g/ha ([9]; 31 g ai/ha, 0 is no effect, 100 is complete control, read-out: Barnyardgrass plant response rating (0 to 100 scale)) of the same compound?
Answer: Its pest or weed control at 31 g/ha is 0%.

Question: And the pest or weed control at 125 g/ha [10, 19]?
Answer: The pest or weed control at 125 g/ha was 0%.

Question: And the pest or weed control at 31 g/ha [10, 20]?
Answer: Its pest or weed control at 31 g/ha is 0%.

Question: And the plant injury at 125 g/ha [11, 19]?
Answer: The plant injury at 125 g/ha was 0%.

Question: And the plant injury at 31 g/ha [11, 20]?
Answer: Its plant injury at 31 g/ha is 0%.

Question: What about the pest or weed control at 125 g/ha [12, 19] of the same compound?
Answer: Its pest or weed control at 125 g/ha is 0%.

Question: What about the pest or weed control at 31 g/ha [12, 20] of the same compound?
Answer: Its pest or weed control at 31 g/ha is 0%.

Question: What about the pest or weed control at 31 g/ha ([13]; 31 g ai/ha, Preemergence) of the same compound?
Answer: The pest or weed control at 31 g/ha was 0%.

Question: And the pest or weed control at 125 g/ha [13, 21]?
Answer: Its pest or weed control at 125 g/ha is 0%.

Question: And the pest or weed control at 31 g/ha ([14]; 31 g ai/ha, Preemergence)?
Answer: Its pest or weed control at 31 g/ha is 0%.

Question: What about the pest or weed control at 125 g/ha [14, 21] of the same compound?
Answer: The pest or weed control at 125 g/ha was 0%.

Question: What about the pest or weed control at 31 g/ha (Kochia (Kochia scoparia) [15]; 31 g ai/ha, Preemergence) of the same compound?
Answer: The pest or weed control at 31 g/ha was 0%.

Question: What about the pest or weed control at 125 g/ha (Kochia (Kochia scoparia) [15]; [21]) of the same compound?
Answer: Its pest or weed control at 125 g/ha is 0%.

Question: And the pest or weed control at 31 g/ha ([16]; 31 g ai/ha, Preemergence)?
Answer: Its pest or weed control at 31 g/ha is 20%.

Question: What about the pest or weed control at 125 g/ha [16, 21] of the same compound?
Answer: The pest or weed control at 125 g/ha was 30%.

Question: And the pest or weed control at 31 g/ha ([17]; 31 g ai/ha, Preemergence)?
Answer: Its pest or weed control at 31 g/ha is 0%.

Question: And the pest or weed control at 125 g/ha [17, 21]?
Answer: The pest or weed control at 125 g/ha was 0%.

Question: What about the pest or weed control at 31 g/ha ([18]; 31 g ai/ha, Preemergence) of the same compound?
Answer: The pest or weed control at 31 g/ha was 50%.

Question: And the pest or weed control at 125 g/ha [18, 21]?
Answer: The pest or weed control at 125 g/ha was 50%.
